Among the data in patent US9902696B2, “1,4-substituted piperidine derivatives” (Cephalon, Inc., priority 2015, dated 2018) are IC50 values, retold here.

Molecules are shown by their SMILES. Where a name gives a salt, the structure may show the parent alone.

T1 sequence (P49327 whole entry): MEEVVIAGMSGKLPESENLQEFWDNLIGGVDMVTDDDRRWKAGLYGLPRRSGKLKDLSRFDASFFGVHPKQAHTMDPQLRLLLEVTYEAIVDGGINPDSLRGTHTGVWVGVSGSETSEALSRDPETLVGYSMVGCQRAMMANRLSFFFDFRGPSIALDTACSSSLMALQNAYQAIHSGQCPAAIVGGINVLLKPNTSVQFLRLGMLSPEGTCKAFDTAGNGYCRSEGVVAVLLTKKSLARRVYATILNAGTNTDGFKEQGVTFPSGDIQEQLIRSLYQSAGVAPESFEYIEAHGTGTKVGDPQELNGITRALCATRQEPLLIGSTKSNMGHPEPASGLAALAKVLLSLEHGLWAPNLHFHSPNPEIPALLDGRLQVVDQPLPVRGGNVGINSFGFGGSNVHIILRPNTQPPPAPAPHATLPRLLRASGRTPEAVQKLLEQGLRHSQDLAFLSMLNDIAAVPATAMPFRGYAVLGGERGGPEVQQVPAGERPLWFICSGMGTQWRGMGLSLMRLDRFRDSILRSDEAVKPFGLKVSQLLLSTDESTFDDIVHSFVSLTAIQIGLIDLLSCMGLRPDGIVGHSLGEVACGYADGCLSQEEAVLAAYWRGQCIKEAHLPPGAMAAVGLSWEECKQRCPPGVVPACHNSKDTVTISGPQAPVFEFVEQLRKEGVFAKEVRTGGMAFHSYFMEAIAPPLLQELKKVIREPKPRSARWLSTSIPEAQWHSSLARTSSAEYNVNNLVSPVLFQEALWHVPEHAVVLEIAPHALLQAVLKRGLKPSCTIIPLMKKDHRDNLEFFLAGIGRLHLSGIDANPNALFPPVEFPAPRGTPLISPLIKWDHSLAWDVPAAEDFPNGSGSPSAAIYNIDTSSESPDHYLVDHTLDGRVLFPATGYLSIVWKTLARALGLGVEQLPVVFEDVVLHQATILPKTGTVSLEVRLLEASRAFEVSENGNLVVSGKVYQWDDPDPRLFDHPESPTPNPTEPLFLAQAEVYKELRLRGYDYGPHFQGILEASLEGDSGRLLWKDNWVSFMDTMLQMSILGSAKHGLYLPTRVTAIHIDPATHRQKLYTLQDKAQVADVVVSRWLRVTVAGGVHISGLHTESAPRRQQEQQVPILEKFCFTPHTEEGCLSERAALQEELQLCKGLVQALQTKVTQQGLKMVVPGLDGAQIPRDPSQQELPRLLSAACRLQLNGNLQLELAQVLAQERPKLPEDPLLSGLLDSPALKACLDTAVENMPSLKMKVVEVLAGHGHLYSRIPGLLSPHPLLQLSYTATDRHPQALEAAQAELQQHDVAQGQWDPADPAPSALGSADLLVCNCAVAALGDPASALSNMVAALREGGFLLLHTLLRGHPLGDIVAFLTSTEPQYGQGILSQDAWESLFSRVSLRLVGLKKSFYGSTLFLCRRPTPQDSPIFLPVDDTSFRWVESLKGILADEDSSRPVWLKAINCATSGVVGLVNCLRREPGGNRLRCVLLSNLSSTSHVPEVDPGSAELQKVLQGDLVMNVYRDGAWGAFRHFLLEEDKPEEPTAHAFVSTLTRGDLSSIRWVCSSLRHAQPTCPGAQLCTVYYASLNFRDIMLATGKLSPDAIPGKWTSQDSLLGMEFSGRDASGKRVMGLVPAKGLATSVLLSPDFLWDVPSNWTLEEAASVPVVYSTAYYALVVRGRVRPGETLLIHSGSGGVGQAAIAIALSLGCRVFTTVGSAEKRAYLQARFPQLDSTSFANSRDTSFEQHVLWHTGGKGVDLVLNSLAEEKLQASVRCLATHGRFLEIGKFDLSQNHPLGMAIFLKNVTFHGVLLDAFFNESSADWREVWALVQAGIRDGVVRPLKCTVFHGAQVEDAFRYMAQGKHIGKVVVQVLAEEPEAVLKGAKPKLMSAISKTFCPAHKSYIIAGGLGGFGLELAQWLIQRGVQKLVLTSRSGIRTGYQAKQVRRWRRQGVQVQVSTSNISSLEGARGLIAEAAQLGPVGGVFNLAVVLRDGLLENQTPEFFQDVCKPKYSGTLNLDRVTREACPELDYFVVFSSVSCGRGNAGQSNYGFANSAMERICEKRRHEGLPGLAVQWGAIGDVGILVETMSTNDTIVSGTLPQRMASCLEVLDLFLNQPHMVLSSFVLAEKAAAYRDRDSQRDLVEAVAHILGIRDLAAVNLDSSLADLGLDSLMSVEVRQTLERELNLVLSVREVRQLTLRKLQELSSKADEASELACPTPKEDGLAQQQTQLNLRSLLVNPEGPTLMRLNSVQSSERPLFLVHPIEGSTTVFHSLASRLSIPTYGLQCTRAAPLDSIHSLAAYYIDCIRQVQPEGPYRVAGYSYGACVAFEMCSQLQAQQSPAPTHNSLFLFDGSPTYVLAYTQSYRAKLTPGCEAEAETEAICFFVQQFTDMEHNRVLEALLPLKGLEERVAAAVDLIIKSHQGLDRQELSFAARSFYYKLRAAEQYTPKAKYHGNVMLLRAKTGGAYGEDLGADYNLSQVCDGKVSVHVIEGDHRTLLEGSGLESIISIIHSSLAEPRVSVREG

This experiment addresses T1, recombinant human baculovirus-expressed GST-tagged FASN (Homo sapiens, UniProt P49327).
T1 construct: GST
Put plainly: FASN enzyme activity assay, fluorescence-based detection of CoA with CPM. The class given is biochemical. Particulars: 5 nM FASN, 150 μM NADPH, 10 μM acetyl-CoA, 25 μM malonyl-CoA, 90 minutes incubation; read-out: IC50 data for Compounds of Formulae I-V/V(a): Activity. The essentials: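 Human GST-tagged FASN, baculovirus-expressed (5 nM), in 50 mM HEPES pH 7.5 with 150 μM NADPH, 10 μM acetyl-CoA, 25 μM malonyl-CoA, 0.5% DMSO; malonyl-CoA-started, 90 min. Released CoA detected with CPM (50 μM dilution), 30 min, fluorescence ex 390/em 530. IC50 from variable-slope sigmoidal fit of % inhibition versus log concentration.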
Take `O=C(C1CC1)N1CCC(Oc2ccc(-c3ccc4scnc4c3)cc2)CC1` [Example 268, [4-(4-Benzothiazol-5-yl-phenoxy)-piperidin-1-yl]-cyclopropylmethanone, TFA salt]: the IC50 was in the range of 1 to 10 µM.

As to `CCC(=O)N1CCC(Oc2ccc(-c3ccc4scnc4c3)cc2)CC1` [Example 269, 1-[4-(4-Benzothiazol-5-yl-phenoxy)-piperidin-1-yl]-propan-1-one; TFA salt], the IC50 fell in the range of 0.1 to 0.999 µM.

On to `Cn1ncc2ccc(-c3ccc(OC4CCN(C(=O)C5CC5)CC4)cc3)cc21` [Example 270, Cyclopropyl-{4-[4-(1-methyl-1H-indazol-6-yl)-phenoxy]-piperidin-1-yl}-methanone. TFA salt], for which the IC50 fell in the range of 0.1 to 0.999 µM.

In the case of `Cn1ncc2ccc(-c3ccc(OC4CCN(C(=O)C5CCC5)CC4)cc3)cc21` [Example 271, Cyclobutyl-{4-[4-(1-methyl-1H-indazol-6-yl)-phenoxy]-piperidin-1-yl}-methanone, TFA salt], the IC50 was 0.1 to 0.999 µM.

For the compound `COc1c(-c2ccc(OC3CCN(C(=O)[C@H]4CCCO4)CC3)cc2)ccc2cccnc12` [Example 272, {4-[4-(8-Methoxyquinolin-7-yl)-phenoxy]-piperidin-1-yl}-(R)-tetrahydro-furan-2-yl-methanone, TFA salt], the IC50 fell in the range of 0.001 to 0.099 µM.

`CCC(=O)N1CCC(Oc2ccc(-c3ccc4cccnc4c3OC)cc2)CC1` [Example 273, 1-{4-[4-(8-Methoxyquinolin-7-yl)-phenoxy]-piperidin-1-yl}-propan-1-one, TFA salt]: the IC50 lay within 0.001 to 0.099 µM.

For `COc1c(-c2ccc(OC3CCN(C(=O)C4CC4)CC3)cc2)ccc2cccnc12` [Example 274, Cyclopropyl-{4-[4-(8-methoxyquinolin-7-yl)-phenoxy]-piperidin-1-yl}-methanone, HCl], the IC50 was in the range of 0.001 to 0.099 µM.

With `Cc1cc2cccnc2cc1-c1ccc(OC2CCN(C(=O)[C@H]3CCCO3)CC2)cc1` [Example 275, {4-[4-(6-Methylquinolin-7-yl)-phenoxy]-piperidin-1-yl}-(R)-tetrahydro-furan-2-yl-methanone], the IC50 is 0.1 to 0.999 µM.

In the case of `CCC(=O)N1CCC(Oc2ccc(-c3cc4ncccc4cc3C)cc2)CC1` [Example 276, 1-{4-[4-(6-Methylquinolin-7-yl)-phenoxy]-piperidin-1-yl}-propan-1-one], the IC50 was 1 to 10 µM.

In the case of `CCC(=O)N1CCC(Oc2ccc(-c3ccc4cc(C#N)cnc4c3)cc2)CC1` [Example 277, 7-[4-(1-Propionyl-piperidin-4-yloxy)-phenyl]-quinoline-3-carbonitrile], the IC50 fell in the range of 0.1 to 0.999 µM.

For `N#Cc1cnc2cc(-c3ccc(OC4CCN(C(=O)[C@H]5CCCO5)CC4)cc3)ccc2c1` [Example 278, 7-{4-[1-((R)-Tetrahydrofuran-2-carbonyl)-piperidin-4-yloxy]-phenyl}-quinoline-3-carbonitrile], the IC50 was 0.001 to 0.099 µM.

Regarding `N#Cc1cnc2cc(-c3ccc(OC4CCN(C(=O)C5CC5)CC4)cc3)ccc2c1` [Example 279, 7-[4-(1-Cyclopropanecarbonyl-piperidin-4-yloxy)-phenyl]-quinoline-3-carbonitrile], the IC50 lay within 0.1 to 0.999 µM.

In the case of `CCC(=O)N1CCC(Oc2ccc(-c3ccc4cc(C)cnc4c3)cc2)CC1` [Example 280, 1-{4-[4-(3-Methylquinolin-7-yl)-phenoxy]-piperidin-1-yl}-propan-1-one], the IC50 was in the range of 0.001 to 0.099 µM.

As to `Cc1cnc2cc(-c3ccc(OC4CCN(C(=O)[C@H]5CCCO5)CC4)cc3)ccc2c1` [Example 281, {4-[4-(3-Methylquinolin-7-yl)-phenoxy]-piperidin-1-yl}-(R)-tetrahydro-furan-2-yl-methanone], the IC50 is 1 to 10 µM.

On to `Cc1cnc2cc(-c3ccc(OC4CCN(C(=O)C5CC5)CC4)cc3)ccc2c1` [Example 282, Cyclopropyl-{4-[4-(3-methylquinolin-7-yl)-phenoxy]-piperidin-1-yl}-methanone], for which the IC50 fell in the range of 1 to 10 µM.

As to `Cc1cc(-c2ccc(OC3CCN(C(=O)[C@H]4CCCO4)CC3)cc2)cn2ccnc12` [Example 283, {4-[4-(8-Methylimidazo[1,2-a]pyridin-6-yl)-phenoxy]-piperidin-1-yl}-(R)-tetrahydrofuran-2-yl-methanone], the IC50 is 0.001 to 0.099 µM.

Take `CCC(=O)N1CCC(Oc2ccc(-c3cc(C)c4nccn4c3)cc2)CC1` [Example 284, 1-{4-[4-(8-Methylimidazo[1,2-a]pyridin-6-yl)-phenoxy]-piperidin-1-yl}-propan-1-one]: the IC50 fell in the range of 1 to 10 µM.

In the case of `Cc1c(-c2ccc(OC3CCN(C(=O)[C@H]4CCCO4)CC3)cc2)ccc2nccn12` [Example 285, {4-[4-(5-Methylimidazo[1,2-a]pyridin-6-yl)-phenoxy]-piperidin-1-yl}-(R)-tetrahydrofuran-2-yl-methanone], the IC50 fell in the range of 0.001 to 0.099 µM.

For `CCC(=O)N1CCC(Oc2ccc(-c3ccc4nccn4c3C)cc2)CC1` [Example 286, 1-{4-[4-(5-Methylimidazo[1,2-a]pyridin-6-yl)-phenoxy]-piperidin-1-yl}-propan-1-one], the IC50 fell in the range of 1 to 10 µM.

For the compound `Cc1c(-c2ccc(OC3CCN(C(=O)C4CC4)CC3)cc2)ccc2nccn12` [Example 287, Cyclopropyl-{4-[4-(5-methyl-imidazo[1,2-a]pyridin-6-yl)-phenoxy]-piperidin-1-yl}-methanone], the IC50 is 0.1 to 0.999 µM.

On to `Cc1cc(-c2ccc(OC3CCN(C(=O)C4CC4)CC3)cc2)cn2ccnc12` [Example 288, Cyclopropyl-{4-[4-(8-methylimidazo[1,2-a]pyridin-6-yl)-phenoxy]-piperidin-1-yl}-methanone], for which the IC50 fell in the range of 0.1 to 0.999 µM.

Turning to `Cc1nc2ccc(-c3ccc(OC4CCN(C(=O)[C@H]5CCCO5)CC4)cc3)cn2c1C` [Example 289, {4-[4-(2,3-Dimethylimidazo[1,2-a]pyridin-6-yl)-phenoxy]-piperidin-1-yl}-(R)-tetrahydrofuran 2-yl-methanone], the IC50 was 1 to 10 µM.

On to `CCC(=O)N1CCC(Oc2ccc(-c3ccc4nc(C)c(C)n4c3)cc2)CC1` [Example 290, 1-{4-[4-(2,3-Dimethylimidazo[1,2-a]pyridin-6-yl)-phenoxy]-piperidin-1-yl}-propan-1-one], for which the IC50 lay within 1 to 10 µM.

In the case of `Cc1nc2ccc(-c3ccc(OC4CCN(C(=O)C5CC5)CC4)cc3)cn2c1C` [Example 291, Cyclopropyl-{4-[4-(2,3-dimethylimidazo[1,2-a]pyridin-6-yl)-phenoxy]-piperidin-1-yl}-methanone], the IC50 fell in the range of 1 to 10 µM.

In the case of `Cc1cc2nccn2cc1-c1ccc(OC2CCN(C(=O)[C@H]3CCCO3)CC2)cc1` [Example 292, {4-[4-(7-Methylimidazo[1,2-a]pyridin-6-yl)-phenoxy]-piperidin-1-yl}-(R)-tetrahydrofuran-2-yl-methanone], the IC50 was in the range of 0.1 to 0.999 µM.

Take `CCC(=O)N1CCC(Oc2ccc(-c3cn4ccnc4cc3C)cc2)CC1` [Example 293, 1-{4-[4-(7-Methylimidazo[1,2-a]pyridin-6-yl)-phenoxy]-piperidin-1-yl}-propan-1-one]: the IC50 was 1 to 10 µM.

Turning to `O=C([C@H]1CCCO1)N1CCC(Oc2ccc(-c3ccc4nccn4c3Cl)cc2)CC1` [Example 294, {4-[4-(5-Chloroimidazo[1,2-a]pyridin-6-yl)-phenoxy]-piperidin-1-yl}-(R)-tetrahydrofuran-2-yl-methanone], the IC50 is 1 to 10 µM.

For `O=C([C@H]1CCCO1)N1CCC(Oc2ccc(-c3ccc4nccn4c3Cl)cc2)CC1` [Example 295, {4-[4-(5-Chloroimidazo[1,2-a]pyridin-6-yl)-phenoxy]-piperidin-1-yl}-(R)-tetrahydrofuran-2-yl-methanone], the IC50 fell in the range of 0.001 to 0.099 µM.

As to `CCC(=O)N1CCC(Oc2ccc(-c3ccc4nccn4c3Cl)cc2)CC1` [Example 296, 1-{4-[4-(5-Chloroimidazo[1,2-a]pyridin-6-yl)-phenoxy]-piperidin-1-yl}-propan-1-one], the IC50 lay in the range of 0.1 to 0.999 µM.

Regarding `O=C(C1CC1)N1CCC(Oc2ccc(-c3ccc4nccn4c3Cl)cc2)CC1` [Example 297, {4-[4-(5-Chloroimidazo[1,2-a]pyridin-6-yl)-phenoxy]-piperidin-1-yl}-cyclopropylmethanone], the IC50 lay within 0.1 to 0.999 µM.

With `O=C([C@H]1CCCO1)N1CCC(Oc2ccc(-c3ccc4cncn4c3)cc2)CC1` [Example 298, [4-(4-Imidazo[1,5-a]pyridin-6-yl-phenoxy)-piperidin-1-yl]-(R)-tetrahydro-furan-2-yl-methanone], the IC50 lay within 0.001 to 0.099 µM.

Consider `CCC(=O)N1CCC(Oc2ccc(-c3ccc4cncn4c3)cc2)CC1` [Example 299, 1-[4-(4-Imidazo[1,5-a]pyridin-6-yl-phenoxy)-piperidin-1-yl]-propan-1-one], for which the IC50 lay in the range of 1 to 10 µM.

In the case of `O=C(C1CC1)N1CCC(Oc2ccc(-c3ccc4cncn4c3)cc2)CC1` [Example 300, Cyclopropyl-[4-(4-imidazo[1,5-a]pyridin-6-yl-phenoxy)-piperidin-1-yl]-methanone], the IC50 lay in the range of 1 to 10 µM.

Consider `NC(=O)C1(C(=O)N2CCC(Oc3ccc(-c4ccc5cncn5c4)cc3)CC2)CC1` [Example 301, 1-[4-(4-Imidazo[1,5-a]pyridin-6-yl-phenoxy)-piperidine-1-carbonyl]-cyclopropanecarboxylic acid amide], for which the IC50 was in the range of 1 to 10 µM.

With `O=C(N1CCC(Oc2ccc(-c3ccc4cncn4c3)cc2)CC1)C1(O)CC1` [Example 302, (1-Hydroxycyclopropyl)-[4-(4-imidazo[1,5-a]pyridin-6-yl-phenoxy)-piperidin-1-yl]-methanone], the IC50 lay in the range of 0.001 to 0.099 µM.

For `COc1c(-c2ccc(OC3CCN(C(=O)C4(O)CC4)CC3)cc2)ccc2cccnc12` [Example 303, (1-Hydroxycyclopropyl)-{4-[4-(8-methoxy-quinolin-7-yl)-phenoxy]-piperidin-1-yl}-methanone], the IC50 lay in the range of 0.001 to 0.099 µM.
